Numbers after ± are expanded uncertainties.
Conditions: Liquid, Closed cell (Static) method

Q: Which results are given for `F/C=C\C(F)(F)F` [(Z)-1,3,3,3-tetrafluoro-1-propene]?
A: vapor or sublimation pressure (353.17 K): 858.3 ± 1.4 kPa; vapor or sublimation pressure (373.14 K): 1347.5 ± 2.1 kPa; vapor or sublimation pressure (393.12 K): 2023.7 ± 3.2 kPa; vapor or sublimation pressure (413.14 K): 2940.4 ± 4.6 kPa

Source: the NIST ThermoML archive (doi:10.1021/acs.jced.7b00263)
